According to PMC5343874, “High Specific Selectivity and Membrane-Active Mechanism of Synthetic Cationic Hybrid Antimicrobial Peptides Based on the Peptide FV7” (International Journal of Molecular Sciences, 2017):
No end group written: not given here.

Legend:
[1] = system: human red blood cells (hRBC); assay: Hemolytic activity; type: cell-based; settings: 37 °C; for concentration causing 5% hemolysis (minimal hemolytic concentration, MHC): fresh human erythrocytes in PBS pH 7.4, 1 h, absorbance 570 nm, maximal concentration 128 µM, averages of three independent experiments
Experimental: The hemolytic activity of the peptides was evaluated by measuring the amount of released hemoglobin by the lysis of erythrocytes. The measurement was as previously described. Human red blood cells (hRBC) were obtained from healthy donors by the ethics committee of the Northeast Agricultural University Hospital. The fresh blood cells were washed 2–3 times in PBS (pH 7.4) and centrifuged at 1000× g for 5 min at 4 °C, then resuspended in PBS. Briefly, 50 μL of hRBC solution was incubated with 50 μL of different concentrations of each peptide dissolved in PBS in a 96-well microtiter plate. After incubation for 1 h at 37 °C, the mixtures were centrifuged at 1000× g for 5 min at 4 °C and then the supernatant was transferred to another 96-well microtiter plate. The release of hemoglobin was monitored by measurement of the absorbance at 570 nm using a multimode microplate reader (SpectraMax M5, Molecular Devices, San Francisco, CA, USA). The concentration causing 5% hemolysis was defined as the minimal hemolytic concentration (MHC). The control samples for 0% and 100% hemolysis consisted of hRBC in PBS (Ablank) only and in 0.1% Triton X-100 (Atriton), respectively. The percent hemolysis was calculated according to the following equation: % Hemolysis = [(Asample − Ablank)/(Atriton − Ablank)] × 100

[2] = system: S. aureus ATCC 29213; assay: Salt and heat sensitivity (MIC); type: cell-based, Staphylococcus aureus; design: key to MIC, FeCl3 / MIC, Mix / MIC, Control / MIC, NaCl / MIC, KCl / MIC, NH4Cl / MIC, MgCl2 / MIC, ZnCl2 / MIC, CaCl2: MIC in µM (peptide serial dilutions 0.5–128 µM); MIC, Heat (100 °C): unit not given beside the values; settings: for MIC, FeCl3: 4 mM FeCl3; for MIC, Mix: mixture medium with all salts in physiological concentrations; for MIC, Heat (100 °C): peptide incubated at 100 °C for 1 h
Experimental: (§1) Minimum inhibitory concentration (MIC) was determined using the modified standard microtiter dilution method as described previously. The bacteria were incubated overnight at 37 °C, […] at 220 rpm and transferred to new nutrient broth (MHB) until the logarithmic phase of growth. The bacteria were then diluted into 10^5 colony forming units (10^5 CFU/mL) in MHB. The peptides were dissolved and diluted in 0.01% acetic acid and 0.2% bovine serum albumin (BSA). Briefly, serial diluted (0.5–128 µM) peptides were added to sterile 96-well plates in a 50-μL volume of bacteria in MHB mixed with 50 µL. […] The results are expressed as an average of the MICs at least three times.
(§2) The incubation to test for thermal stability occurred at 100 °C for 1 h. After these treatments, the procedures were the same as described above for the MIC assay.

[3] = system: E. coli UB1005 inner membrane; assay: Inner membrane permeability (ONPG hydrolysis); type: cell-based, Escherichia coli; settings: 1× MIC, absorbance 420 nm, 0–30 min
Experimental: The inner membrane permeability activity against E. coli bacteria was determined by the uptake of ONPG. E. coli UB 1005 cells were cultured to mid-log phase in MHB medium containing 2% lactose at 37 °C, and harvested by centrifugation at 3000× g for 5 min. After washing twice, the cells were diluted to an OD600 of 0.05 with buffer (10 mM PBS, pH 7.4) containing 1.5 mM ONPG. […] The value of OD reflected the ONPG flowing into the cells was measured at 420 nm from 0 to 30 min every two min.

[4] = system: E. coli ATCC 25922; assay: Salt and heat sensitivity (MIC); type: cell-based, Escherichia coli; design: key to MIC, Control / MIC, NaCl / MIC, KCl / MIC, NH4Cl / MIC, MgCl2 / MIC, ZnCl2 / MIC, FeCl3 / MIC, CaCl2 / MIC, Mix: MIC in µM (peptide serial dilutions 0.5–128 µM); MIC, Heat (100 °C): unit not given beside the values; settings: for MIC, MgCl2: 1 mM MgCl2; for MIC, CaCl2: 2.5 mM CaCl2; for MIC, FeCl3: 4 mM FeCl3; for MIC, KCl: 4.5 mM KCl; for MIC, NH4Cl: 6 mM NH4Cl; for MIC, ZnCl2: 8 mM ZnCl2; for MIC, NaCl: 150 mM NaCl; for MIC, Control: absence of physiological salts; for MIC, Mix: mixture medium with all salts in physiological concentrations; for MIC, Heat (100 °C): peptide incubated at 100 °C for 1 h
Experimental: as §1, §2

[5] = system: P. aeruginosa ATCC 27853; type: cell-based, Pseudomonas aeruginosa
Experimental: as §1
(§3) E. coli ATCC 25,922, S. typhimurium ATCC 7731, S. typhimurium ATCC 14028, P. aeruginosa ATCC 27853, B. subtilis CMCC 63501, S. aureus ATCC 29213, S. epidermidis ATCC 12228 and E. faecalis ATCC 29212 were obtained from the College of Veterinary Medicine, Northeast Agricultural University (Harbin, China). E. coli UB1005 was kindly provided by Qingsheng Qi (State Key Laboratory of Microbial Technology, Shandong University, Jinan, China). P. Aeruginosa PAO1 was kindly provided by Wengong Yu (State Key Laboratory of School of Medicine and Pharmacy, Ocean University of China, Qingdao, China).

[6] = system: P. aeruginosa PAO1; type: cell-based, Pseudomonas aeruginosa
Experimental: as §1, §3

[7] = system: S. faecalis ATCC 29212; type: cell-based
Experimental: as §1, §3

[8] = system: B. subtilis CMCC 63501; type: cell-based, Bacillus subtilis
Experimental: as §1, §3

[9] = system: S. typhimurium ATCC 7731; type: cell-based, Salmonella typhimurium
Experimental: as §1, §3

[10] = system: S. typhimurium ATCC 14028; type: cell-based, Salmonella typhimurium
Experimental: as §1, §3

[11] = system: S. aureus ATCC 29213; type: cell-based, Staphylococcus aureus
Experimental: as §1, §3

[12] = system: E. coli ATCC 25922; type: cell-based, Escherichia coli
Experimental: as §1, §3

[13] = system: E. coli UB 1005; type: cell-based, Escherichia coli
Experimental: as §1, §3

[14] = system: Gram-negative and Gram-positive bacteria; assay: MIC across the bacterial panel; type: cell-based
Experimental: as §1, §3

[15] = system: S. epidermidis ATCC12228; type: cell-based, Staphylococcus epidermidis
Experimental: as §1, §3

Compound: CC[C@H](C)[C@H](NC(=O)CN)C(=O)NCC(=O)N[C@@H](C)C(=O)N[C@H](C(=O)N[C@@H](CC(C)C)C(=O)N[C@@H](CCCCN)C(=O)N[C@H](C(=O)N[C@@H](CC(C)C)C(=O)N[C@H](C(=O)N[C@H](C(=O)NCC(=O)N[C@@H](CC(C)C)C(=O)N1CCC[C@H]1C(=O)N[C@@H](C)C(=O)N[C@@H](CC(C)C)C(=O)N[C@H](C(=O)N[C@@H](CO)C(=O)N[C@@H](Cc1c[nH]c2ccccc12)C(=O)N[C@H](C(=O)N[C@@H](CCCCN)C(=O)N[C@@H](CCCNC(=N)N)C(=O)N[C@@H](CCCCN)C(=O)N[C@@H](CCCNC(=N)N)C(=O)N[C@@H](CCC(N)=O)C(=O)N[C@@H](CCC(N)=O)C(N)=O)[C@@H](C)CC)[C@@H](C)CC)[C@@H](C)O)[C@@H](C)O)C(C)C)C(C)C [ME26, melittin]
- concentration giving complete hemolysis ([1]; human erythrocytes, 1 h): greater than 4 µM
- MIC, MgCl2 ([2]; 1 mM MgCl2): 2
- MIC, CaCl2 ([2]; 2.5 mM CaCl2): 4
- MIC, FeCl3 [2]: 2
- MIC, KCl ([2]; 4.5 mM KCl): 4
- MIC, NH4Cl ([2]; 6 mM NH4Cl): 2
- MIC, ZnCl2 ([2]; 8 mM ZnCl2): 2
- MIC, NaCl ([2]; 150 mM NaCl): 4
- MIC, Control ([2]; absence of physiological salts): 8
- MIC, Mix [2]: 4
- MIC, Heat (100 °C) [2]: 8
- inner membrane permeability (ONPG hydrolysis, in words) [3]: highest ability for inner membrane permeability
- MIC, MgCl2 [4]: 4
- MIC, CaCl2 [4]: 2
- MIC, FeCl3 [4]: 2
- MIC, KCl [4]: 2
- MIC, NH4Cl [4]: 2
- MIC, ZnCl2 [4]: 4
- MIC, NaCl [4]: 4
- MIC, Control [4]: 2
- MIC, Mix [4]: 4
- MIC, Heat (100 °C) [4]: 2

Compound: AKKFGKAFVGEIM-NH2 [MA]
- MIC [5]: >64 µM
- MIC [6]: >64 µM
- MIC [7]: >64 µM
- MIC [8]: >64 µM
- MIC [9]: >64 µM
- MIC [10]: >64 µM
- MIC [11]: >64 µM
- MIC [12]: 32 µM
- MIC [13]: >64 µM
- minimum inhibitory concentration [14]: greater than 64 μM
- MIC [15]: >64 µM

Compound: FKRIVQRIKDFLR-NH2 [LL]
- MIC [5]: 8 µM
- MIC [6]: 16 µM
- MIC [7]: 32 µM
- MIC [8]: 16 µM
- MIC [9]: 16 µM
- MIC [10]: 32 µM
- MIC [11]: 16 µM
- MIC [12]: 16 µM
- MIC [13]: 16 µM
- MIC [15]: 8 µM

Compound: FRIRVRV-NH2 [FV7]
- hemolysis ([1]; at 128 µM, human erythrocytes, 1 h): approximately 15%
- concentration causing 5% hemolysis (minimal hemolytic concentration, MHC) [1]: 4 µM
- MIC [5]: 16 µM
- MIC [6]: 32 µM
- MIC [7]: 32 µM
- MIC [8]: 16 µM
- MIC [9]: 32 µM
- MIC [10]: 16 µM
- MIC [11]: 64 µM
- MIC [12]: 16 µM
- MIC [13]: 32 µM
- MIC [15]: 32 µM

Compound: FRIRVRVAKKFGKAFVGEIM-NH2 [FV-MA]
- hemolytic activity (in words) ([1]; human erythrocytes, 1 h, up to 128 µM): higher hemolytic activity at each concentration when compared to FV7
- MIC [5]: 8 µM
- MIC [6]: 2 µM
- MIC [7]: 16 µM
- MIC [8]: 4 µM
- MIC [9]: 4 µM
- MIC [10]: 4 µM
- MIC [11]: 8 µM
- MIC [12]: 8 µM
- MIC [13]: 8 µM
- MIC [15]: 8 µM

Compound: FRIRVRVFKRIVQRIKDFLR-NH2 [FV-LL]
- concentration causing 5% hemolysis (minimal hemolytic concentration, MHC) [1]: > 128 µM
- MIC [5]: 4 µM
- MIC [6]: 2 µM
- MIC [7]: 4 µM
- MIC [8]: 4 µM
- MIC [9]: 2 µM
- MIC [10]: 2 µM
- MIC [11]: 2 µM
- MIC [12]: 1 µM
- MIC [13]: 4 µM
- MIC [15]: 1 µM

Compound: FRIRVRVKWKLFKKI-NH2 [FV-CE]
- concentration causing 5% hemolysis (minimal hemolytic concentration, MHC) [1]: > 128 µM
- MIC [5]: 2 µM
- MIC [6]: 2 µM
- MIC [7]: 1 µM
- MIC [8]: 1 µM
- MIC [9]: 4 µM
- MIC [10]: 4 µM
- MIC [11]: 8 µM
- MIC, FeCl3 [2]: 4
- MIC, Mix [2]: 4
- MIC, Heat (100 °C) [2]: 4
- MIC [12]: 2 µM
- MIC [13]: 2 µM
- MIC, MgCl2 [4]: 2
- MIC, CaCl2 [4]: 2
- MIC, FeCl3 [4]: 4
- MIC, KCl [4]: 2
- MIC, NH4Cl [4]: 2
- MIC, ZnCl2 [4]: 2
- MIC, NaCl [4]: 2
- MIC, Control [4]: 2
- MIC, Mix [4]: 2
- MIC, Heat (100 °C) [4]: 2
- MIC [15]: 0.5 µM

Compound: KWKLFKKI-NH2 [CE]
- MIC [5]: >64 µM
- MIC [6]: >64 µM
- MIC [7]: >64 µM
- MIC [8]: >64 µM
- MIC [9]: >64 µM
- MIC [10]: >64 µM
- MIC [11]: >64 µM
- MIC [12]: 64 µM
- MIC [13]: >64 µM
- minimum inhibitory concentration [14]: greater than 64 μM
- MIC [15]: >64 µM
